The conditions of this data set: for aqueous pH: concentration not stated (summary).

Structures can show the parent of a compound that is named as a salt. Where two headings read alike, the source gives them in different places.

With `NCCCC(O)(P(=O)(O)O)P(=O)(O)O` [free acid, 4-amino-1-hydroxybutylidene-1,1-bisphosphonic acid], the “aqueous pH” value is reported as “about 2.2”. Further, the “solution pH” value (at 8 mg/ml) turned out to be 2.2.
Turning to `NCCCC(O)(P(=O)(O)O)P(=O)(O)O` [disodium salt, 4-Amino-1-Hydroxy-Butylidene-1,1-Bisphosphonic Acid Disodium Salt Monohydrate], the “solution pH” value (at 50 mg/ml) worked out at 8.7. The “aqueous pH” value (Disodium Salt Monohydrate) is “about 8.7”.

The values above are taken from US20010021705A1, “Disodium alendronate formulations” (MERCK & CO., Inc., priority 1995, published 2001).
